Key:
NCI-H23 = assay: Antiproliferative activity against human NCI-H23 cells; format: functional
MDA-MB-231 = assay: Antiproliferative activity against human MDA-MB-231 cells; format: functional
ACHN = assay: Antiproliferative activity against human ACHN cells; format: functional
[1] = Inhibition of HDAC by fluorescence assay
HCT-15 = assay: Antiproliferative activity against human HCT15 cells; format: functional
PC-3 = assay: Antiproliferative activity against human PC3 cells; format: functional
NUGC-3 = assay: Antiproliferative activity against human NUGC3 cells; format: functional
[2] = Chemical stability in buffer assessed as compound remaining at 1 uM after 30 mins; format: physicochemical; details: read-out: Stability
[3] = Metabolic stability in mouse liver microsomes assessed as compound remaining at 1 uM after 30 mins in the presence of NADPH; format: ADME, Microsome; details: read-out: Stability
[4] = Metabolic stability in mouse liver microsomes assessed as compound remaining at 1 uM after 30 mins in the absence of NADPH; format: ADME, Microsome; details: read-out: Stability

GI50 (NCI-H23) | GI50 (MDA-MB-231) | GI50 (ACHN) | IC50 [1] | GI50 (HCT-15) | GI50 (PC-3) | remaining at 0.5 h, 1 µM [2] | remaining at 0.5 h, 1 µM [3] | remaining at 0.5 h, 1 µM [4] | SMILES | GI50 (NUGC-3)
1170 nM | 1880 nM | 2480 nM | 160 nM | > 10000 nM | 2590 nM | – | – | – | COc1cccc(CCN2CC=C(CCC(=O)NO)C2=O)c1 | 3930 nM
4490 nM | 1500 nM | 2530 nM | 130 nM | > 10000 nM | 3510 nM | – | – | – | COc1ccccc1CCN1CC=C(CCC(=O)NO)C1=O | 2020 nM
1640 nM | 1630 nM | 2480 nM | 450 nM | 1720 nM | 3120 nM | – | – | – | COc1ccc(CN2CC=C(CCC(=O)NO)C2=O)cc1 | 1110 nM
680 nM | 220 nM | 670 nM | 120 nM | 540 nM | 880 nM | – | – | – | O=C(CCC1=CCN(Cc2cccc(C(F)(F)F)c2)C1=O)NO | 160 nM
2510 nM | 2560 nM | 4750 nM | 270 nM | > 10000 nM | 7000 nM | – | – | – | COc1ccc(CCCN2CC=C(CCC(=O)NO)C2=O)cc1 | 5480 nM
1170 nM | 1880 nM | 2480 nM | 160 nM | > 10000 nM | 2590 nM | – | – | – | COc1cccc(CCCN2CC=C(CCC(=O)NO)C2=O)c1 | 3930 nM
6130 nM | 6030 nM | > 10000 nM | > 10000 nM | > 10000 nM | 3560 nM | – | – | – | COc1ccccc1CN1CC=C(CCC(=O)NO)C1=O | > 10000 nM
4290 nM | 990 nM | 1080 nM | 120 nM | 5370 nM | 4430 nM | – | – | – | O=C(CCC1=CCN(Cc2ccccc2)C1=O)NO | –
1120 nM | 1170 nM | 2480 nM | 70 nM | 2200 nM | 2380 nM | 102% | 75.9% | 73.9% | O=C(CCC1=CCN(CCc2ccc(C(F)(F)F)cc2)C1=O)NO | 1080 nM
1110 nM | 2170 nM | 1170 nM | 120 nM | 6010 nM | 2770 nM | – | – | – | O=C(CCC1=CCN(CCc2cccc(C(F)(F)F)c2)C1=O)NO | 920 nM
6640 nM | 3070 nM | 4290 nM | 260 nM | 4540 nM | 4360 nM | – | – | – | O=C(CCC1=CCN(Cc2ccc(C(F)(F)F)cc2)C1=O)NO | 3230 nM
4490 nM | 1500 nM | 2530 nM | 130 nM | > 10000 nM | 3510 nM | – | – | – | COc1ccccc1CCCN1CC=C(CCC(=O)NO)C1=O | 2020 nM
– | 990 nM | – | 120 nM | – | – | 96.7% | 82.9% | 85.5% | O=C(CCC1=CCN(CCc2ccccc2)C1=O)NO | –
4020 nM | 1080 nM | 2380 nM | 190 nM | > 10000 nM | 3170 nM | 102% | 98.3% | 92% | COc1ccc(CCN2CC=C(CCC(=O)NO)C2=O)cc1 | 1420 nM
1970 nM | 1770 nM | 4430 nM | 380 nM | 2820 nM | 3890 nM | – | – | – | COc1cccc(CN2CC=C(CCC(=O)NO)C2=O)c1 | 1750 nM

SMILES | GI50 (NCI-H23) | GI50 (MDA-MB-231) | GI50 (ACHN) | IC50 [1] | GI50 (HCT-15) | GI50 (PC-3) | remaining at 0.5 h, 1 µM [2] | remaining at 0.5 h, 1 µM [3] | remaining at 0.5 h, 1 µM [4] | GI50 (NUGC-3)
O=C1CC2(CCCC2)CC(=O)N1CCCCN1CCN(c2ncccn2)CC1 [BUSPIRONE] | – | – | – | – | – | – | 108% | 106% | 0.1% | –
